Measured values as given in patent US12139520B2 (priority 2020, dated 2024).
Bridge positions count the residues as written; N and C are the ends. Square brackets hold non-standard residues; d marks the D form. Peptide text beside a SMILES is read from it. Hyp = O=C(O)[C@@H]1C[C@@H](O)CN1

Key:
hAMY3 receptor = target: T1, hAMY3 receptor (Homo sapiens, UniProt O60896+P30988); assay: cAMP assay for in vitro receptor activation, hAMY3-R; type: cell-based; settings: cAMP assay, hAMY3 receptor; read-out: hAMY3R EC50
T1 sequence (P30988 25-474): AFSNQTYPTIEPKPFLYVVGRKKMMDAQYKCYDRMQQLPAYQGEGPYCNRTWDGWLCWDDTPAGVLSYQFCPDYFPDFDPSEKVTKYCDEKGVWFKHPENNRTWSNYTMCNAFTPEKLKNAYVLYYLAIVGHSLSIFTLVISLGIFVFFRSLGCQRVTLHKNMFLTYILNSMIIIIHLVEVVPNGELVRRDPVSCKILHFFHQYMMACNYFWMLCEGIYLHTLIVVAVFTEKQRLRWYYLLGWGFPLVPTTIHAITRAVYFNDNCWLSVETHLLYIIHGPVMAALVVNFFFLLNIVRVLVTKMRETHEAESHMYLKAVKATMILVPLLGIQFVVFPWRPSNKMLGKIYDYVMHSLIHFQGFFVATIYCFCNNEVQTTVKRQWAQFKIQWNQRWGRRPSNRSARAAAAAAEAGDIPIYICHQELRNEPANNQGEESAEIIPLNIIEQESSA
T1 sequence (O60896 24-148 partner): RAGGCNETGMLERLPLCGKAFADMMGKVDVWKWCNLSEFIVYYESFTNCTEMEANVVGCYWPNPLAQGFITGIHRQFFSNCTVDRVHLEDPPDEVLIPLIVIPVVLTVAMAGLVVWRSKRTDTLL
Summary of the method: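 Monoclonal cell line stably overexpressing hAMY3 receptor, plated in DPBS with 0.05% casein and 0.5 mM IBMX, was stimulated with graded compound doses for 30 min at room temperature. cAMP accumulation was read by time-resolved FRET one hour after adding detection reagents.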

[1] = Physical stability of peptide analogues (Thioflavin T fibrillation); type: physicochemical; settings: maximum ThT signal normalized between hAMY maximum and buffer background; 40° C., shaking, four days; pH 7 per table title
Summary of the method: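 ThT fluorescence (450 nm excitation, 480 nm emission; 4 μM dye) was read every 10 min over four days at 40° C under 700 rpm shaking stress, after 1 h in pH 4 acetate or pH 7 phosphate (50 mM). Peak smoothed signal expressed as percent, scaled between buffer background and hAMY maximum.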

| SMILES | EC50 (hAMY3 receptor) [nM] | Max ThT signal (%) [1] [%] |
| --- | --- | --- |
| CC[C@H](C)[C@H](NC(=O)[C@H](CC(N)=O)NC(=O)[C@@H](NC(=O)[C@H](CCCNC(=N)N)NC(=O)[C@@H]1CCCN1C(=O)[C@H](C)NC(=O)[C@@H](NC(=O)[C@H](CC(N)=O)NC(=O)[C@H](CC(=O)O)NC(=O)[C@H](CCCCN)NC(=O)[C@H](CC(=O)O)NC(=O)[C@H](CCCCN)NC(=O)[C@H](CC(=O)O)NC(=O)[C@@H](NC(=O)[C@H](Cc1ccccc1)NC(=O)[C@H](CCC(N)=O)NC(=O)[C@H](Cc1ccc(O)cc1)NC(=O)[C@@H](NC(=O)[C@H](CCC(N)=O)NC(=O)[C@H](Cc1c[nH]cn1)NC(=O)[C@H](C)NC(=O)[C@H](CC(C)C)NC(=O)[C@H](Cc1c[nH]c2ccccc12)NC(=O)[C@H](CCC(N)=O)NC(=O)[C@@H](NC(=O)[C@@H](NC(=O)[C@@H]1CSSC[C@H](NC(=O)CN)C(=O)N[C@@H](CCCNC(=N)N)C(=O)N[C@@H](Cc2ccccc2)C(=O)NCC(=O)N[C@@H]([C@@H](C)O)C(=O)N1)[C@@H](C)O)C(C)C)[C@@H](C)CC)[C@@H](C)O)C(C)C)[C@@H](C)O)C(=O)NCC(=O)N1CCC[C@H]1C(=O)N[C@@H](CC(N)=O)C(=O)NCC(=O)N1C[C@H](O)C[C@H]1C(N)=O [compound 331] (H-GCRFGTCTVQWLAHQIYQFTDKDKDNVAPRTNIGPNG[Hyp]-NH2; disulfide 2-7; N-terminus assumed) | 0.006 | 21.150 |
| CC[C@H](C)[C@H](NC(=O)[C@H](CCCCN)NC(=O)[C@@H](NC(=O)[C@H](CCCNC(=N)N)NC(=O)[C@@H]1CCCN1C(=O)[C@H](C)NC(=O)[C@@H](NC(=O)[C@H](CC(N)=O)NC(=O)[C@H](CC(=O)O)NC(=O)[C@H](CCCCN)NC(=O)[C@H](CC(=O)O)NC(=O)[C@H](CCCCN)NC(=O)[C@H](CC(=O)O)NC(=O)[C@@H](NC(=O)[C@H](Cc1ccccc1)NC(=O)[C@H](CCC(N)=O)NC(=O)[C@H](Cc1ccc(O)cc1)NC(=O)[C@@H](NC(=O)[C@H](CCC(N)=O)NC(=O)[C@H](Cc1c[nH]cn1)NC(=O)[C@H](C)NC(=O)[C@H](CC(C)C)NC(=O)[C@H](Cc1c[nH]c2ccccc12)NC(=O)[C@H](CCC(N)=O)NC(=O)[C@@H](NC(=O)[C@@H](NC(=O)[C@@H]1CSSC[C@H](NC(=O)CN)C(=O)N[C@@H](CCCNC(=N)N)C(=O)N[C@@H](Cc2ccccc2)C(=O)NCC(=O)N[C@@H]([C@@H](C)O)C(=O)N1)[C@@H](C)O)C(C)C)[C@@H](C)CC)[C@@H](C)O)C(C)C)[C@@H](C)O)C(=O)NCC(=O)N1CCC[C@H]1C(=O)N[C@@H](CCC(N)=O)C(=O)NCC(=O)N1C[C@H](O)C[C@H]1C(N)=O [compound 336] (H-GCRFGTCTVQWLAHQIYQFTDKDKDNVAPRTKIGPQG[Hyp]-NH2; disulfide 2-7; N-terminus assumed) | 0.029 | 18.700 |
| CC[C@H](C)[C@H](NC(=O)[C@H](CCC(N)=O)NC(=O)[C@H](Cc1c[nH]cn1)NC(=O)[C@H](C)NC(=O)[C@H](CC(C)C)NC(=O)[C@H](Cc1c[nH]c2ccccc12)NC(=O)[C@H](CCC(N)=O)NC(=O)[C@@H](NC(=O)[C@@H](NC(=O)[C@@H]1CSSC[C@H](NC(=O)CN)C(=O)N[C@@H](CCCNC(=N)N)C(=O)N[C@@H](Cc2ccccc2)C(=O)NCC(=O)N[C@@H]([C@@H](C)O)C(=O)N1)[C@@H](C)O)C(C)C)C(=O)N[C@@H](Cc1ccc(O)cc1)C(=O)N[C@@H](CCC(N)=O)C(=O)N[C@@H](Cc1ccccc1)C(=O)N[C@H](C(=O)N[C@@H](CC(=O)O)C(=O)N[C@@H](CCCCN)C(=O)N[C@@H](CC(=O)O)C(=O)N[C@@H](CCCCN)C(=O)N[C@@H](CC(=O)O)C(=O)N[C@@H](CC(N)=O)C(=O)N[C@H](C(=O)N[C@@H](C)C(=O)N1CCC[C@H]1C(=O)N[C@@H](CCCNC(=N)N)C(=O)N[C@H](C(=O)N[C@@H](CCCCN)C(=O)N[C@H](C(=O)N[C@@H](CO)C(=O)N1CCC[C@H]1C(=O)N[C@@H](CC(N)=O)C(=O)NCC(=O)N1C[C@H](O)C[C@H]1C(N)=O)[C@@H](C)CC)[C@@H](C)O)C(C)C)[C@@H](C)O [compound 337] (H-GCRFGTCTVQWLAHQIYQFTDKDKDNVAPRTKISPNG[Hyp]-NH2; disulfide 2-7; N-terminus assumed) | 0.019 | 16.800 |
| CC[C@H](C)[C@H](NC(=O)[C@H](CCC(N)=O)NC(=O)[C@H](Cc1c[nH]cn1)NC(=O)[C@H](C)NC(=O)[C@H](CC(C)C)NC(=O)[C@H](Cc1c[nH]c2ccccc12)NC(=O)[C@H](CCC(N)=O)NC(=O)[C@@H](NC(=O)[C@@H](NC(=O)[C@@H]1CSSC[C@H](NC(=O)CN)C(=O)N[C@@H](CCCNC(=N)N)C(=O)N[C@@H](Cc2ccccc2)C(=O)NCC(=O)N[C@@H]([C@@H](C)O)C(=O)N1)[C@@H](C)O)C(C)C)C(=O)N[C@@H](Cc1ccc(O)cc1)C(=O)N[C@@H](CCC(N)=O)C(=O)N[C@@H](Cc1ccccc1)C(=O)N[C@H](C(=O)N[C@@H](CC(=O)O)C(=O)N[C@@H](CCCCN)C(=O)N[C@@H](CC(=O)O)C(=O)N[C@@H](CCCCN)C(=O)N[C@@H](CC(=O)O)C(=O)N[C@@H](CC(N)=O)C(=O)N[C@H](C(=O)N[C@@H](C)C(=O)N1CCC[C@H]1C(=O)N[C@@H](CCCNC(=N)N)C(=O)N[C@H](C(=O)N[C@@H](CC(N)=O)C(=O)N[C@H](C(=O)N[C@@H](CO)C(=O)N1CCC[C@H]1C(=O)N[C@@H](CCC(N)=O)C(=O)NCC(=O)N[C@@H](Cc1ccc(O)cc1)C(N)=O)C(C)C)[C@@H](C)O)C(C)C)[C@@H](C)O [compound 340] (H-GCRFGTCTVQWLAHQIYQFTDKDKDNVAPRTNVSPQGY-NH2; disulfide 2-7; N-terminus assumed) | 0.022 | 1.700 |
| CC[C@H](C)[C@H](NC(=O)[C@H](CCCCN)NC(=O)[C@@H](NC(=O)[C@H](CCCNC(=N)N)NC(=O)[C@@H]1CCCN1C(=O)[C@H](C)NC(=O)[C@@H](NC(=O)[C@H](CC(N)=O)NC(=O)[C@H](CC(=O)O)NC(=O)[C@H](CCCCN)NC(=O)[C@H](CC(=O)O)NC(=O)[C@H](CCCCN)NC(=O)[C@H](CC(=O)O)NC(=O)[C@@H](NC(=O)[C@H](Cc1ccccc1)NC(=O)[C@H](CCC(N)=O)NC(=O)[C@H](Cc1ccc(O)cc1)NC(=O)[C@@H](NC(=O)[C@H](CCC(N)=O)NC(=O)[C@H](Cc1c[nH]cn1)NC(=O)[C@H](C)NC(=O)[C@H](CC(C)C)NC(=O)[C@H](Cc1c[nH]c2ccccc12)NC(=O)[C@H](CCC(N)=O)NC(=O)[C@@H](NC(=O)[C@@H](NC(=O)[C@@H]1CSSC[C@H](NC(=O)CN)C(=O)N[C@@H](CCCNC(=N)N)C(=O)N[C@@H](Cc2ccccc2)C(=O)NCC(=O)N[C@@H]([C@@H](C)O)C(=O)N1)[C@@H](C)O)C(C)C)[C@@H](C)CC)[C@@H](C)O)C(C)C)[C@@H](C)O)C(=O)NCC(=O)N1CCC[C@H]1C(=O)N[C@@H](CC(N)=O)C(=O)NCC(=O)N1C[C@H](O)C[C@H]1C(N)=O [compound 343] (H-GCRFGTCTVQWLAHQIYQFTDKDKDNVAPRTKIGPNG[Hyp]-NH2; disulfide 2-7; N-terminus assumed) | 0.017 | 24.850 |
| CC[C@H](C)[C@H](NC(=O)[C@H](CCC(N)=O)NC(=O)[C@H](Cc1c[nH]cn1)NC(=O)[C@H](C)NC(=O)[C@H](CC(C)C)NC(=O)[C@H](Cc1c[nH]c2ccccc12)NC(=O)[C@H](CCC(N)=O)NC(=O)[C@@H](NC(=O)[C@@H](NC(=O)[C@@H]1CSSC[C@H](NC(=O)CN)C(=O)N[C@@H](CCCNC(=N)N)C(=O)N[C@@H](Cc2ccccc2)C(=O)NCC(=O)N[C@@H]([C@@H](C)O)C(=O)N1)[C@@H](C)O)C(C)C)C(=O)N[C@@H](Cc1ccc(O)cc1)C(=O)N[C@@H](CCC(N)=O)C(=O)N[C@@H](Cc1ccccc1)C(=O)N[C@H](C(=O)N[C@@H](CC(=O)O)C(=O)N[C@@H](CCCCN)C(=O)N[C@@H](CC(=O)O)C(=O)N[C@@H](CCCCN)C(=O)N[C@@H](CC(=O)O)C(=O)N[C@@H](CC(N)=O)C(=O)N[C@H](C(=O)N[C@@H](C)C(=O)N1CCC[C@H]1C(=O)N[C@@H](CCCNC(=N)N)C(=O)N[C@@H](CO)C(=O)N[C@@H](CC(N)=O)C(=O)N[C@H](C(=O)N[C@@H](CO)C(=O)N1CCC[C@H]1C(=O)N[C@@H](CCC(N)=O)C(=O)NCC(=O)N[C@@H](Cc1ccc(O)cc1)C(N)=O)C(C)C)C(C)C)[C@@H](C)O [compound 345] (H-GCRFGTCTVQWLAHQIYQFTDKDKDNVAPRSNVSPQGY-NH2; disulfide 2-7; N-terminus assumed) | 0.051 | 3.250 |
